Where “and” joins values, the source holds several entries; their conditions need not be identical. Equal values may be shown once. Blank lines part the entries; values can stand above or below the compound they belong to.
Tested on: 317291-083-R-J1-PDC complex spheroid growth
Assay: Anticancer human tumor 317291-083-R-J1-PDC patient-derived soft tissue sarcoma cell line growth inhibition [Asc]
Details: for viability, T/C: stronger effect = lower value
Summary of the method: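 Spheroid model: tumor line + HUVEC + hMSC. Single agents and combinations; top conc. at/near clinical Cmax (10 microM if undetermined), half-log dilutions. DMSO stocks at 800-fold test concentration.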

[1] = curve of first compound, second compound 0.0316 µM
[2] = curve of first compound, second compound 0.1 µM
[3] = curve of first compound, second compound 0.316 µM
[4] = curve of first compound, second compound 1 µM
[5] = curve of first compound, second compound 0.00316 µM
[6] = curve of first compound, second compound 0.01 µM
[7] = second compound 0.00316 µM, first compound 0.0316 µM
[8] = second compound 0.00316 µM, first compound 0.1 µM
[9] = second compound 0.00316 µM, first compound 0.316 µM
[10] = second compound 0.00316 µM, first compound 1 µM
[11] = second compound 0.01 µM, first compound 0.0316 µM
[12] = second compound 0.01 µM, first compound 0.1 µM
[13] = second compound 0.01 µM, first compound 0.316 µM
[14] = second compound 0.01 µM, first compound 1 µM
[15] = second compound 0.0316 µM, first compound 0.0316 µM
[16] = second compound 0.0316 µM, first compound 0.1 µM
[17] = second compound 0.0316 µM, first compound 0.316 µM
[18] = second compound 0.0316 µM, first compound 1 µM
[19] = second compound 0.1 µM, first compound 0.0316 µM
[20] = second compound 0.1 µM, first compound 0.1 µM
[21] = second compound 0.1 µM, first compound 0.316 µM
[22] = second compound 0.1 µM, first compound 1 µM
[23] = second compound 0.316 µM, first compound 0.0316 µM
[24] = second compound 0.316 µM, first compound 0.1 µM
[25] = second compound 0.316 µM, first compound 0.316 µM
[26] = second compound 0.316 µM, first compound 1 µM
[27] = second compound 1 µM, first compound 0.0316 µM
[28] = second compound 1 µM, first compound 0.1 µM
[29] = second compound 1 µM, first compound 0.316 µM
[30] = second compound 1 µM, first compound 1 µM
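Also: compound exposure lasted seven days after spheroids formed for three days.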
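For viability, T/C in this document: 100% = DMSO vehicle control wells.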

Compound: O=C(c1cc(Cc2n[nH]c(=O)c3ccccc23)ccc1F)N1CCN(C(=O)C2CC2)CC1
viability, T/C (compound 0.0316 µM): 106% and 111% and 91.2%
viability, T/C (compound 0.1 µM): 76.1% and 100% and 97%
viability, T/C (compound 0.316 µM): 110% and 87.8% and 93.8%
viability, T/C (compound 1 µM): 83% and 101% and 88.7%
viability, T/C (compound 3.16 µM): 82.7% and 84.3% and 47.8%
viability, T/C (compound 10 µM): 42.5% and 46.9% and 32.5%
IC50 (curve of compound): 8070 nM and 9240 nM and 2970 nM

Compound: O=C(c1cc(Cc2n[nH]c(=O)c3ccccc23)ccc1F)N1CCN(C(=O)C2CC2)CC1 + CNC(C)C(=O)NC1CN(S(=O)(=O)c2cccc(S(=O)(=O)N3CCC4CCC(C(=O)NC(c5ccccc5)c5ccccc5)N4C(=O)C(NC(=O)C(C)NC)C3)c2)CCC2CCC(C(=O)NC(c3ccccc3)c3ccccc3)N2C1=O
IC50 [5]: < 31.6 nM
IC50 [6]: < 31.6 nM
IC50 [1]: 3590 nM
IC50 [2]: 743 nM
IC50 [3]: 31.6 nM
IC50 [4]: < 31.6 nM
viability, T/C [7]: 4.34%
viability, T/C [8]: 4.85%
viability, T/C [9]: 5.04%
viability, T/C [10]: 5.11%
viability, T/C (second compound 0.00316 µM, first compound 3.16 µM): 4.26%
viability, T/C (second compound 0.00316 µM, first compound 10 µM): 4.12%
viability, T/C [11]: 37%
viability, T/C [12]: 43.8%
viability, T/C [13]: 55.6%
viability, T/C [14]: 33.9%
viability, T/C (second compound 0.01 µM, first compound 3.16 µM): 16.4%
viability, T/C (second compound 0.01 µM, first compound 10 µM): 16.1%
viability, T/C [15]: 65.5%
viability, T/C [16]: 67.9%
viability, T/C [17]: 62%
viability, T/C [18]: 58.1%
viability, T/C (second compound 0.0316 µM, first compound 3.16 µM): 55.2%
viability, T/C (second compound 0.0316 µM, first compound 10 µM): 23.9%
viability, T/C [19]: 78.5%
viability, T/C [20]: 71.3%
viability, T/C [21]: 57.7%
viability, T/C [22]: 54.7%
viability, T/C (second compound 0.1 µM, first compound 3.16 µM): 23.4%
viability, T/C (second compound 0.1 µM, first compound 10 µM): 34.9%
viability, T/C [23]: 52%
viability, T/C [24]: 44.4%
viability, T/C [25]: 44.8%
viability, T/C [26]: 50.8%
viability, T/C (second compound 0.316 µM, first compound 3.16 µM): 17.4%
viability, T/C (second compound 0.316 µM, first compound 10 µM): 21.4%
viability, T/C [27]: 34.3%
viability, T/C [28]: 47.7%
viability, T/C [29]: 34.8%
viability, T/C [30]: 27.9%
viability, T/C (second compound 1 µM, first compound 3.16 µM): 13.2%
viability, T/C (second compound 1 µM, first compound 10 µM): 13.8%

Compound: O=C(c1ccc(F)c(F)c1Nc1ccc(I)cc1F)N1CC(O)([C@@H]2CCCCN2)C1 + CNC(C)C(=O)NC1CN(S(=O)(=O)c2cccc(S(=O)(=O)N3CCC4CCC(C(=O)NC(c5ccccc5)c5ccccc5)N4C(=O)C(NC(=O)C(C)NC)C3)c2)CCC2CCC(C(=O)NC(c3ccccc3)c3ccccc3)N2C1=O
IC50 [5]: 203 nM
IC50 [6]: 244 nM
IC50 [1]: 258 nM
IC50 [2]: 74.4 nM
IC50 [3]: 78.1 nM
IC50 [4]: < 3.16 nM
viability, T/C (second compound 0.00316 µM, first compound 0.00316 µM): 75.5%
viability, T/C (second compound 0.00316 µM, first compound 0.01 µM): 69.5%
viability, T/C [7]: 63.3%
viability, T/C [8]: 71.5%
viability, T/C [9]: 37.5%
viability, T/C [10]: 13.9%
viability, T/C (second compound 0.01 µM, first compound 0.00316 µM): 100%
viability, T/C (second compound 0.01 µM, first compound 0.01 µM): 73.2%
viability, T/C [11]: 75.2%
viability, T/C [12]: 91.7%
viability, T/C [13]: 39.8%
viability, T/C [14]: 23.4%
viability, T/C (second compound 0.0316 µM, first compound 0.00316 µM): 92%
viability, T/C (second compound 0.0316 µM, first compound 0.01 µM): 72%
viability, T/C [15]: 73.6%
viability, T/C [16]: 90%
viability, T/C [17]: 43.1%
viability, T/C [18]: 14.7%
viability, T/C (second compound 0.1 µM, first compound 0.00316 µM): 72.3%
viability, T/C (second compound 0.1 µM, first compound 0.01 µM): 83.5%
viability, T/C [19]: 56.3%
viability, T/C [20]: 49.9%
viability, T/C [21]: 19%
viability, T/C [22]: 8.71%
viability, T/C (second compound 0.316 µM, first compound 0.00316 µM): 60.1%
viability, T/C (second compound 0.316 µM, first compound 0.01 µM): 63.7%
viability, T/C [23]: 47.8%
viability, T/C [24]: 47.9%
viability, T/C [25]: 38.6%
viability, T/C [26]: 7.49%
viability, T/C (second compound 1 µM, first compound 0.00316 µM): 37.1%
viability, T/C (second compound 1 µM, first compound 0.01 µM): 42.3%
viability, T/C [27]: 37.9%
viability, T/C [28]: 33.5%
viability, T/C [29]: 14.8%
viability, T/C [30]: 5.83%

Second part, led by results:

IC50 [1]: 1960 nM
IC50 [2]: 2540 nM
IC50 [3]: 946 nM
IC50 [4]: 600 nM
IC50 (curve of first compound, second compound 3.16 µM): 469 nM
IC50 (curve of first compound, second compound 10 µM): 992 nM
Compound: Cc1nc(N2CCC3(CC2)COC(C)C3N)c(CO)nc1Sc1ccnc(N)c1Cl (stereo not drawn) + Cc1c(S(C)(=O)=O)c(-c2cc(F)cc(N3CCN(c4ccc(NS(=O)(=O)c5ccc(NC(CCN6CCC(C(=O)OCCCP(=O)(O)O)CC6)CSc6ccccc6)c(S(=O)(=O)C(F)(F)F)c5)cc4)CC3)c2)c(-c2ccc(Cl)cc2)n1C(C)C
viability, T/C (second compound 0.0316 µM, first compound 0.00949 µM): 96.4%
viability, T/C (second compound 0.0316 µM, first compound 0.03 µM): 77.5%
viability, T/C (second compound 0.0316 µM, first compound 0.0949 µM): 98.4%
viability, T/C (second compound 0.0316 µM, first compound 0.3 µM): 82.8%
viability, T/C (second compound 0.0316 µM, first compound 0.949 µM): 61.3%
viability, T/C (second compound 0.0316 µM, first compound 3 µM): 43.5%
viability, T/C (second compound 0.1 µM, first compound 0.00949 µM): 98.1%
viability, T/C (second compound 0.1 µM, first compound 0.03 µM): 92.1%
viability, T/C (second compound 0.1 µM, first compound 0.0949 µM): 81.9%
viability, T/C (second compound 0.1 µM, first compound 0.3 µM): 69.8%
viability, T/C (second compound 0.1 µM, first compound 0.949 µM): 51.3%
viability, T/C (second compound 0.1 µM, first compound 3 µM): 51%
viability, T/C (second compound 0.316 µM, first compound 0.00949 µM): 88.3%
viability, T/C (second compound 0.316 µM, first compound 0.03 µM): 91.3%
viability, T/C (second compound 0.316 µM, first compound 0.0949 µM): 74.4%
viability, T/C (second compound 0.316 µM, first compound 0.3 µM): 63.9%
viability, T/C (second compound 0.316 µM, first compound 0.949 µM): 52.2%
viability, T/C (second compound 0.316 µM, first compound 3 µM): 29.9%
viability, T/C (second compound 1 µM, first compound 0.00949 µM): 93.7%
viability, T/C (second compound 1 µM, first compound 0.03 µM): 73.2%
viability, T/C (second compound 1 µM, first compound 0.0949 µM): 68.8%
viability, T/C (second compound 1 µM, first compound 0.3 µM): 63.1%
viability, T/C (second compound 1 µM, first compound 0.949 µM): 39.2%
viability, T/C (second compound 1 µM, first compound 3 µM): 37.9%
viability, T/C (second compound 3.16 µM, first compound 0.00949 µM): 86.5%
viability, T/C (second compound 3.16 µM, first compound 0.03 µM): 69.8%
viability, T/C (second compound 3.16 µM, first compound 0.0949 µM): 66.2%
viability, T/C (second compound 3.16 µM, first compound 0.3 µM): 58.6%
viability, T/C (second compound 3.16 µM, first compound 0.949 µM): 42.2%
viability, T/C (second compound 3.16 µM, first compound 3 µM): 20.4%
viability, T/C (second compound 10 µM, first compound 0.00949 µM): 86.5%
viability, T/C (second compound 10 µM, first compound 0.03 µM): 87.3%
viability, T/C (second compound 10 µM, first compound 0.0949 µM): 81.7%
viability, T/C (second compound 10 µM, first compound 0.3 µM): 67.5%
viability, T/C (second compound 10 µM, first compound 0.949 µM): 52%
viability, T/C (second compound 10 µM, first compound 3 µM): 26.7%

IC50 (compound alone, run of 11/07/2022): > 3000 nM
IC50 (curve of compound): > 3000 nM
Compound: CCN1C(C(=O)NC23CCC(C(=O)O)(CC2)CC3)C(c2cccc(Cl)c2F)C2(C(=O)Nc3cc(Cl)ccc32)C12CCCCC2 (stereo not drawn)
viability, T/C (compound 0.0949 µM): 96.6% [middle of 9 runs]
viability, T/C (compound 0.3 µM): 95.2% [middle of 9 runs]
viability, T/C (compound 3 µM): 87.6% [middle of 9 runs]

From PubChem BioAssay AID1963427 (Molecular Pharmacology Branch, DTP, NCI, 2024)
